Data reported in ChEMBL document CHEMBL1137047, “Induction of G2/M cell cycle arrest and apoptosis by a benz[f]indole-4,9-dione analog in cultured human lung (A549) cancer cells” (Bioorg Med Chem Lett, 2004).

Columns and labels:
Format in all cases: functional, cell-based
Conditions in all cases: Homo sapiens
Col2 = test: inhibitory activity against growth of cultured Col2 cell line
SNU-638 = test: inhibitory activity against growth of cultured SNU-638 cell line
A549 = test: Inhibitory activity against growth of cultured A-549 cell line

IC50 (SNU-638): 1680 nM
IC50 (A549): 630 nM
Structure (SMILES): CCOC(=O)c1c2c(n(C)c1N)C(=O)c1ccccc1C2=O
IC50 (Col2): 340 nM
